Test results reported in PubChem BioAssay AID204 (DTP/NCI, 2004).
“And” between values parts separate entries of the source, which are not always exact repeats. Identical values can stand only once. Inconclusive results and toxic doses are left out.

System: BDF1 mice, P288 methotrexate-resistant leukemia, survival T/C
Assay: NCI In Vivo Anticancer Drug Screen. Data for tumor model P288 Lymphocytic Leukemia resistant to methotrexate; NSC 740 (intraperitoneal) in B6D2F1 (BDF1) mice
Conditions: endpoint: median survival time, schedule: Q01DX010 (ip), higher = longer survival
Method: The antitumor activity of compounds was measured in mice bearing transplantable tumors. Survival or tumor size were measured and the results are expressed as the measurement made in the treated group (T) divided by the measurement made in the vehicle treated control group (C). The tumor model used in this assay is P288 Lymphocytic Leukemia resistant to methotrexate; NSC 740 (intraperitoneal) in B6D2F1 (BDF1) mice

[1] = dose: 25.0 mg/kg/injection, vehicle: saline
[2] = dose: 50.0 mg/kg/injection, vehicle: saline
[3] = dose: 100.0 mg/kg/injection, vehicle: saline
[4] = dose: 2.0 mg/kg/injection, vehicle: saline
[5] = dose: 4.0 mg/kg/injection, vehicle: saline
[6] = dose: 8.0 mg/kg/injection, vehicle: saline
[7] = dose: 16.0 mg/kg/injection, vehicle: saline
[8] = dose: 12.5 mg/kg/injection, vehicle: saline
[9] = dose: 60.0 mg/kg/injection, vehicle: saline
[10] = dose: 120.0 mg/kg/injection, vehicle: saline
[11] = dose: 125.0 micrograms/kg/injection, vehicle: saline
[12] = dose: 250.0 micrograms/kg/injection, vehicle: saline

O=c1[nH]c(=O)n(C2CC(O)C(CO)O2)cc1F (stereo not given)
T/C (dose: 5.0 mg/kg/injection, vehicle: saline): 95 % of control
T/C (dose: 10.0 mg/kg/injection, vehicle: saline): 108 % of control and 111 % of control
T/C (dose: 20.0 mg/kg/injection, vehicle: saline): 108 % of control and 115 % of control
T/C (dose: 40.0 mg/kg/injection, vehicle: saline): 116 % of control and 123 % of control
T/C (dose: 80.0 mg/kg/injection, vehicle: saline): 92 % of control

O=C1C(NC(=O)C2CCCCC2)=C(N2CC2)C(=O)C(NC(=O)C2CCCCC2)=C1N1CC1
T/C [1]: 90 % of control and 100 % of control
T/C [2]: 90 % of control and 100 % of control
T/C [3]: 90 % of control and 100 % of control
T/C (dose: 200.0 mg/kg/injection, vehicle: saline): 100 % of control and 110 % of control

CCN(CC)c1ccc2cc3ccc(=[N+](CC)CC)cc-3oc2c1
T/C (dose: 1.0 mg/kg/injection, vehicle: saline): 90 % of control
T/C [4]: 104 % of control
T/C [5]: 100 % of control
T/C [6]: 90 % of control

c1ccc(CNc2ncnc3[nH]ncc23)cc1
T/C [6]: 90 % of control and 115 % of control
T/C [7]: 100 % of control and 110 % of control
T/C (dose: 32.0 mg/kg/injection, vehicle: saline): 100 % of control and 110 % of control
T/C (dose: 64.0 mg/kg/injection, vehicle: saline): 110 % of control

CS(=O)(=O)OCCCCOS(C)(=O)=O
T/C (dose: 6.25 mg/kg/injection, vehicle: saline): 87 % of control
T/C [8]: 106 % of control
T/C [1]: 93 % of control
T/C [2]: 87 % of control

C[N+](C)(C)c1ncnc2nc[nH]c12
T/C (dose: 15.0 mg/kg/injection, vehicle: saline): 90 % of control
T/C (dose: 30.0 mg/kg/injection, vehicle: saline): 100 % of control
T/C [9]: 90 % of control and 100 % of control
T/C [10]: 105 % of control and 113 % of control

Nc1nc(N)c2nc(CNc3ccc(C(=O)NC(CCC(=O)O)C(=O)O)cc3)cnc2n1 (stereo not given)
T/C (dose: 0.03 mg/kg/injection, vehicle: other): 90 % of control and 111 % of control
T/C (dose: 0.05 mg/kg/injection, vehicle: other): 100 % of control
T/C (dose: 0.1 mg/kg/injection, vehicle: other): 100 % of control
T/C (dose: 0.2 mg/kg/injection, vehicle: other): 110 % of control and 111 % of control

CN(N=O)C(=O)NC(C=O)C(O)C(O)C(O)CO (stereo not given)
T/C [8]: 100 % of control
T/C [1]: 115 % of control
T/C [3]: 105 % of control

O=C(Nc1ccc(NC(=O)Nc2cccc(C3=NCCN3)c2)cc1)Nc1cccc(C2=NCCN2)c1
T/C [9]: 200 % of control and 225 % of control
T/C [10]: 250 % of control and 322 % of control
T/C (dose: 240.0 mg/kg/injection, vehicle: saline): 183 % of control and 235 % of control
T/C (dose: 480.0 mg/kg/injection, vehicle: saline): 100 % of control and 120 % of control

CC(CCC(C)OS(C)(=O)=O)OS(C)(=O)=O (stereo not given)
T/C [5]: 95 % of control
T/C [6]: 87 % of control and 95 % of control
T/C [7]: 95 % of control and 100 % of control

CSCS(=O)C[C@H](CO)NC(=O)/C=C/c1c(C)[nH]c(=O)[nH]c1=O (stereo not given in full)
T/C (dose: 62.5 micrograms/kg/injection, vehicle: saline): 109 % of control
T/C [11]: 100 % of control
T/C [12]: 100 % of control
T/C (dose: 500.0 micrograms/kg/injection, vehicle: saline): 90 % of control

CCCCn1cnc2c(=S)nc[nH]c21
T/C [4]: 86 % of control
T/C [5]: 86 % of control
T/C [6]: 90 % of control

N#C[C@@H]1C2C=CC(CC2)[C@H]1C#N
T/C (dose: 31.0 micrograms/kg/injection, vehicle: saline): 90 % of control
T/C (dose: 63.0 micrograms/kg/injection, vehicle: saline): 118 % of control
T/C [11]: 109 % of control
T/C [12]: 90 % of control
